In PubChem BioAssay AID2060891 (Molecular Pharmacology Branch, DTP, NCI, 2025):
One block for each compound: values may come before it.

System: K98450-129-R-PDC complex spheroid growth, percent test/control
Experiment: Anticancer human tumor K98450-129-R-PDC patient-derived colon adenocarcinoma cell line growth inhibition [RAS]
Details: for IC50: curve of first compound; for viability, T/C: stronger effect = lower value
How it was run: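 Tumour cells grown as complex spheroids with HUVEC endothelial cells and mesenchymal stem cells, treated with RAS pathway inhibitor combinations. Each agent spans half-log steps from near clinical Cmax, or 10 microM where Cmax is unknown.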

[1] = second compound 0.00316 µM, first compound 0.0316 µM
[2] = second compound 0.00316 µM, first compound 0.1 µM
[3] = second compound 0.00316 µM, first compound 0.316 µM
[4] = second compound 0.00316 µM, first compound 1 µM
[5] = second compound 0.00316 µM, first compound 3.16 µM
[6] = second compound 0.00316 µM, first compound 10 µM
[7] = second compound 0.01 µM, first compound 0.0316 µM
[8] = second compound 0.01 µM, first compound 0.1 µM
[9] = second compound 0.01 µM, first compound 0.316 µM
[10] = second compound 0.01 µM, first compound 1 µM
[11] = second compound 0.01 µM, first compound 3.16 µM
[12] = second compound 0.01 µM, first compound 10 µM
[13] = second compound 0.0316 µM, first compound 0.0316 µM
[14] = second compound 0.0316 µM, first compound 0.1 µM
[15] = second compound 0.0316 µM, first compound 0.316 µM
[16] = second compound 0.0316 µM, first compound 1 µM
[17] = second compound 0.0316 µM, first compound 3.16 µM
[18] = second compound 0.0316 µM, first compound 10 µM
[19] = second compound 0.1 µM, first compound 0.0316 µM
[20] = second compound 0.1 µM, first compound 0.1 µM
[21] = second compound 0.1 µM, first compound 0.316 µM
[22] = second compound 0.1 µM, first compound 1 µM
[23] = second compound 0.1 µM, first compound 3.16 µM
[24] = second compound 0.1 µM, first compound 10 µM
[25] = second compound 0.316 µM, first compound 0.0316 µM
[26] = second compound 0.316 µM, first compound 0.1 µM
[27] = second compound 0.316 µM, first compound 0.316 µM
[28] = second compound 0.316 µM, first compound 1 µM
[29] = second compound 0.316 µM, first compound 3.16 µM
[30] = second compound 0.316 µM, first compound 10 µM
[31] = second compound 1 µM, first compound 0.0316 µM
[32] = second compound 1 µM, first compound 0.1 µM
[33] = second compound 1 µM, first compound 0.316 µM
[34] = second compound 1 µM, first compound 1 µM
[35] = second compound 1 µM, first compound 3.16 µM
[36] = second compound 1 µM, first compound 10 µM
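Further: spheroids exposed to agents for seven days before the viability readout.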
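Wherever viability, T/C is given: luminescence used as a proxy for viable cell amount.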

- IC50 (second compound 0.00316 µM): 5160 nM
- IC50 (second compound 0.01 µM): 4560 nM
- IC50 (second compound 0.0316 µM): 2770 nM
- IC50 (second compound 0.1 µM): 1170 nM
- IC50 (second compound 0.316 µM): < 31.6 nM
- IC50 (second compound 1 µM): < 31.6 nM
Compound: CCC(CC)c1cc(NC2CCC(N)C2)n2nccc2n1 (stereo not given) + C=CC(=O)N1CCN(c2nc(OCC3CCCN3C)nc3c(F)c(-c4nc(N)cc(C)c4C(F)(F)F)c(Cl)cc23)C(C)C1
- viability, T/C [1]: 97.6%
- viability, T/C [2]: 93.8%
- viability, T/C [3]: 91.5%
- viability, T/C [4]: 87.3%
- viability, T/C [5]: 78.2%
- viability, T/C [6]: 13.5%
- viability, T/C [7]: 88.2%
- viability, T/C [8]: 86.8%
- viability, T/C [9]: 84.6%
- viability, T/C [10]: 85.8%
- viability, T/C [11]: 66.2%
- viability, T/C [12]: 15.1%
- viability, T/C [13]: 78.6%
- viability, T/C [14]: 73.3%
- viability, T/C [15]: 73.1%
- viability, T/C [16]: 60.4%
- viability, T/C [17]: 51.3%
- viability, T/C [18]: 8.93%
- viability, T/C [19]: 48.2%
- viability, T/C [20]: 55.4%
- viability, T/C [21]: 51.9%
- viability, T/C [22]: 54.3%
- viability, T/C [23]: 34.1%
- viability, T/C [24]: 8.77%
- viability, T/C [25]: 38.4%
- viability, T/C [26]: 38.9%
- viability, T/C [27]: 41%
- viability, T/C [28]: 37.3%
- viability, T/C [29]: 16.4%
- viability, T/C [30]: 7.47%
- viability, T/C [31]: 32%
- viability, T/C [32]: 31.9%
- viability, T/C [33]: 33.3%
- viability, T/C [34]: 25.3%
- viability, T/C [35]: 11.1%
- viability, T/C [36]: 8.2%

- IC50 (second compound 0.00316 µM): 569 nM
- IC50 (second compound 0.01 µM): 235 nM
- IC50 (second compound 0.0316 µM): 82.4 nM
- IC50 (second compound 0.1 µM): < 31.6 nM
- IC50 (second compound 0.316 µM): < 31.6 nM
- IC50 (second compound 1 µM): < 31.6 nM
Compound: Cc1nc(N2CCC3(CC2)COC(C)C3N)c(CO)nc1Sc1ccnc(N)c1Cl (stereo not given) + C=CC(=O)N1CCN(c2nc(OCC3CCCN3C)nc3c(F)c(-c4nc(N)cc(C)c4C(F)(F)F)c(Cl)cc23)C(C)C1
- viability, T/C [1]: 88.3%
- viability, T/C [2]: 87.9%
- viability, T/C [3]: 66.2%
- viability, T/C [4]: 34.3%
- viability, T/C [5]: 10.5%
- viability, T/C [6]: 7.72%
- viability, T/C [7]: 82.9%
- viability, T/C [8]: 69.6%
- viability, T/C [9]: 44.6%
- viability, T/C [10]: 11.6%
- viability, T/C [11]: 9.41%
- viability, T/C [12]: 7.24%
- viability, T/C [13]: 61.2%
- viability, T/C [14]: 47.6%
- viability, T/C [15]: 20.9%
- viability, T/C [16]: 9.03%
- viability, T/C [17]: 9.29%
- viability, T/C [18]: 7.4%
- viability, T/C [19]: 40.2%
- viability, T/C [20]: 20.5%
- viability, T/C [21]: 11%
- viability, T/C [22]: 8.4%
- viability, T/C [23]: 8.28%
- viability, T/C [24]: 7.55%
- viability, T/C [25]: 23.4%
- viability, T/C [26]: 14.7%
- viability, T/C [27]: 10.1%
- viability, T/C [28]: 9.11%
- viability, T/C [29]: 8.21%
- viability, T/C [30]: 7.31%
- viability, T/C [31]: 21.6%
- viability, T/C [32]: 15.2%
- viability, T/C [33]: 10.9%
- viability, T/C [34]: 8.92%
- viability, T/C [35]: 8.81%
- viability, T/C [36]: 7.65%

Continued, compound first:

Compound: CC1(O)CCCC1n1c(=O)c(C(F)F)cc2cnc(NC3CCN(S(C)(=O)=O)CC3)nc21 (stereo not given) + C=CC(=O)N1CCN(c2nc(OCC3CCCN3C)nc3c(F)c(-c4nc(N)cc(C)c4C(F)(F)F)c(Cl)cc23)C(C)C1
- IC50 (second compound 0.00316 µM): 8350 nM
- IC50 (second compound 0.01 µM): 2760 nM
- IC50 (second compound 0.0316 µM): 696 nM
- IC50 (second compound 0.1 µM): 229 nM
- IC50 (second compound 0.316 µM): < 31.6 nM
- IC50 (second compound 1 µM): < 31.6 nM
- viability, T/C [1]: 97.1%
- viability, T/C [2]: 90.5%
- viability, T/C [3]: 80.8%
- viability, T/C [4]: 71.1%
- viability, T/C [5]: 56.2%
- viability, T/C [6]: 49.1%
- viability, T/C [7]: 86.1%
- viability, T/C [8]: 81.3%
- viability, T/C [9]: 71.2%
- viability, T/C [10]: 65.5%
- viability, T/C [11]: 45%
- viability, T/C [12]: 41.2%
- viability, T/C [13]: 74.9%
- viability, T/C [14]: 70.2%
- viability, T/C [15]: 57.9%
- viability, T/C [16]: 47.5%
- viability, T/C [17]: 34.4%
- viability, T/C [18]: 32%
- viability, T/C [19]: 55.9%
- viability, T/C [20]: 55.6%
- viability, T/C [21]: 48.2%
- viability, T/C [22]: 34%
- viability, T/C [23]: 26.9%
- viability, T/C [24]: 22%
- viability, T/C [25]: 45.2%
- viability, T/C [26]: 42.1%
- viability, T/C [27]: 33%
- viability, T/C [28]: 27.6%
- viability, T/C [29]: 21.7%
- viability, T/C [30]: 18.9%
- viability, T/C [31]: 31.7%
- viability, T/C [32]: 33.7%
- viability, T/C [33]: 26.6%
- viability, T/C [34]: 21%
- viability, T/C [35]: 19.4%
- viability, T/C [36]: 16.1%

Compound: CCN1CCN(Cc2ccc(Nc3ncc(F)c(-c4cc(F)c5nc(C)n(C(C)C)c5c4)n3)nc2)CC1 + C=CC(=O)N1CCN(c2nc(OCC3CCCN3C)nc3c(F)c(-c4nc(N)cc(C)c4C(F)(F)F)c(Cl)cc23)C(C)C1
- IC50 (second compound 0.00316 µM): 512 nM
- IC50 (second compound 0.01 µM): 177 nM
- IC50 (second compound 0.0316 µM): 65.7 nM
- IC50 (second compound 0.1 µM): 20.6 nM
- IC50 (second compound 0.316 µM): < 3.16 nM
- IC50 (second compound 1 µM): < 3.16 nM
- viability, T/C (second compound 0.00316 µM, first compound 0.00316 µM): 95%
- viability, T/C (second compound 0.00316 µM, first compound 0.01 µM): 97.3%
- viability, T/C [1]: 81.8%
- viability, T/C [2]: 75.2%
- viability, T/C [3]: 48.7%
- viability, T/C [4]: 47.8%
- viability, T/C (second compound 0.01 µM, first compound 0.00316 µM): 90.8%
- viability, T/C (second compound 0.01 µM, first compound 0.01 µM): 86.8%
- viability, T/C [7]: 73.7%
- viability, T/C [8]: 57.8%
- viability, T/C [9]: 42.3%
- viability, T/C [10]: 36.2%
- viability, T/C (second compound 0.0316 µM, first compound 0.00316 µM): 73.3%
- viability, T/C (second compound 0.0316 µM, first compound 0.01 µM): 68.3%
- viability, T/C [13]: 62.5%
- viability, T/C [14]: 43.2%
- viability, T/C [15]: 32.4%
- viability, T/C [16]: 31.9%
- viability, T/C (second compound 0.1 µM, first compound 0.00316 µM): 60.2%
- viability, T/C (second compound 0.1 µM, first compound 0.01 µM): 55.1%
- viability, T/C [19]: 46.6%
- viability, T/C [20]: 36.6%
- viability, T/C [21]: 27%
- viability, T/C [22]: 29.2%
- viability, T/C (second compound 0.316 µM, first compound 0.00316 µM): 44.4%
- viability, T/C (second compound 0.316 µM, first compound 0.01 µM): 41.2%
- viability, T/C [25]: 33.1%
- viability, T/C [26]: 27.9%
- viability, T/C [27]: 24.2%
- viability, T/C [28]: 28.4%
- viability, T/C (second compound 1 µM, first compound 0.00316 µM): 31.8%
- viability, T/C (second compound 1 µM, first compound 0.01 µM): 32.1%
- viability, T/C [31]: 28.7%
- viability, T/C [32]: 24.3%
- viability, T/C [33]: 24.6%
- viability, T/C [34]: 29.2%

Compound: C[C@@H](NC(=O)c1ncnc(N)c1Cl)c1ncc(C(=O)Nc2cc(C(F)(F)F)c(Cl)cn2)s1 + C=CC(=O)N1CCN(c2nc(OCC3CCCN3C)nc3c(F)c(-c4nc(N)cc(C)c4C(F)(F)F)c(Cl)cc23)C(C)C1
- IC50 (second compound 0.00316 µM): > 10000 nM
- IC50 (second compound 0.01 µM): > 10000 nM
- IC50 (second compound 0.0316 µM): > 10000 nM
- IC50 (second compound 0.1 µM): > 10000 nM
- IC50 (second compound 0.316 µM): < 31.6 nM
- IC50 (second compound 1 µM): < 31.6 nM
- viability, T/C [1]: 101%
- viability, T/C [2]: 98.6%
- viability, T/C [3]: 102%
- viability, T/C [4]: 108%
- viability, T/C [5]: 115%
- viability, T/C [6]: 94%
- viability, T/C [7]: 91.2%
- viability, T/C [8]: 92.5%
- viability, T/C [9]: 89.5%
- viability, T/C [10]: 97.4%
- viability, T/C [11]: 94.3%
- viability, T/C [12]: 80.1%
- viability, T/C [13]: 76.3%
- viability, T/C [14]: 80.2%
- viability, T/C [15]: 76.3%
- viability, T/C [16]: 77.2%
- viability, T/C [17]: 80%
- viability, T/C [18]: 65.1%
- viability, T/C [19]: 63.8%
- viability, T/C [20]: 66.6%
- viability, T/C [21]: 59.2%
- viability, T/C [22]: 64.8%
- viability, T/C [23]: 69.9%
- viability, T/C [24]: 56.3%
- viability, T/C [25]: 44.2%
- viability, T/C [26]: 50.4%
- viability, T/C [27]: 52.1%
- viability, T/C [28]: 49.9%
- viability, T/C [29]: 57%
- viability, T/C [30]: 46.1%
- viability, T/C [31]: 37.1%
- viability, T/C [32]: 41.3%
- viability, T/C [33]: 44.6%
- viability, T/C [34]: 44.6%
- viability, T/C [35]: 49.7%
- viability, T/C [36]: 43.5%
